Measured values as given in patent US4987148A, “Biocidal 4,5-dichloro-1,2-dithiol-3-one composition” (Yoshitomi Pharmaceutical Industries, Ltd., priority 1989, dated 1991).
Where two headings read alike, the source gives them in different places.

Columns and labels:
[1] = cited from earlier work
[2] = Storage and stability test in transparent glass vessels at 60° C. (50% compositions, HPLC remaining rate); format: physicochemical
Description: In transparent 50 ml-glass vessels, a 50% N-methyl-2-pyrrolidone composition of the dithiol compound (the composition of the present invention), a 50% dimethylformamide composition containing 5 weight % diethylene glycol monomethyl ether, a 50% N-vinyl-2-pyrrolidone composition and a 50% 2-pyrrolidone composition of the dithiol compound (compositions for comparison) were prepared, and the storage and stability tests were conducted.
The tests were conducted by leaving the compositions standing at 60° C. for 15 days and 30 days and examining the remaining rate of the dithiol compound based upon the measurement of area ratio at 317 nm by means of high performance liquid chromatography (HPLC).

[3] = Solubility test: dithiol compound in 100 g of respective solvents at 25° C.; format: physicochemical
Description: The solubilities (weight %) of the dithiol compound in 100 g of the respective solvents shown in Table 1 at 25° C. ar indicated in Table 1.

[4] = State of compositions (crystallization, solidification, scoopability, stability) in storage and at low temperature; format: physicochemical; settings: compositions with N-methyl-2-pyrrolidone
[5] = Crystallization and redissolution test; format: physicochemical
Description: In transparent 50 ml-glass vessels, the dithiol compound and N-methyl-2-pyrrolidone were mixed at the prescribed concentrations, and dissolved, if necessary, under heating. The crystals were yielded by cooling these solutions suitably, under the observation of the state. The crystallizing temperature was measured. The crystallized solutions were heated, and the temperature at which the crystals began to dissolve was measured.

[6] = cited from earlier work; remark: listed apart in the source
[7] = cited from earlier work; remark: listed apart in the source
[8] = Storage and stability test in polyethylene bottle in can at 60° C. (HPLC remaining rate; half life); format: physicochemical; settings: for Half life of dithiol compound: first order
Description: The dithiol compound and N-methyl-2-pyrrolidone were mixed at the concentrations as shown in Table 4 to prepare compositions. Each 50 ml of the compositions was served in a polyethylene bottle, and the bottle was further served tightly in a can with a lid.
The storage and stability tests were conducted by leaving the compositions standing at 60° C. for 11 days (or 15 days) and 30 days in the above state and examining the remaining rate of the dithiol compound based upon the measurement of area ratio at 317 nm by means of high performance liquid chromatography (HPLC).
Since the decomposition rate of the dithiol compound fit to the first order reaction, a half life of the dithiol compound (t 1/2), in the each compositions at 60° C., was calculated with the following equation: […]
wherein α represents a remaining percentage of the dithiol compound, k represents a decomposition rate constant of the dithiol compound and t represents a number of days.

[9] = powdery form; cited from earlier work
[10] = tested on: viable microbes in industrial cooling water, washing water, raw water, power water; settings: raw water and power water, Kokoku No. 14294/1977; cited from earlier work
[11] = 10 weight % in N-methyl-2-pyrrolidone
[12] = 20 weight % in N-methyl-2-pyrrolidone
[13] = 30 weight % in N-methyl-2-pyrrolidone
[14] = 40 weight % in N-methyl-2-pyrrolidone
[15] = 50 weight % in N-methyl-2-pyrrolidone
[16] = 60 weight % in N-methyl-2-pyrrolidone
[17] = 70 weight % in N-methyl-2-pyrrolidone
[18] = 80 weight % in N-methyl-2-pyrrolidone

CN1CCCC1=O [N-Methyl-2-pyrrolidone]
Odor, inflammability, toxicity ([1]; solvent N-Methyl-2-pyrrolidone): few problems in terms of odor, inflammability, toxicity

CN(C)C=O [dimethylformamide]
Toxicity ([1]; solvent): inherently so strong in toxicity

O=c1ssc(Cl)c1Cl [dithiol compound, 4,5-Dichloro-l,2-dithiol-3-one]
Remaining percentage of dithiol compound ([2]; 50% in 2-pyrrolidone, 60° C., 15 days): 38.9%
Remaining percentage of dithiol compound ([2]; 50% in 2-pyrrolidone, 60° C., 30 days): 18.0%
Remaining percentage of dithiol compound ([2]; 50% in Dimethylformamide containing 5 weight % diethylene glycol monomethyl ether, 60° C., 15 days): 94.2%
Remaining percentage of dithiol compound ([2]; 50% in Dimethylformamide containing 5 weight % diethylene glycol monomethyl ether, 60° C., 30 days): 84.7%
Remaining percentage of dithiol compound ([2]; 50% in N-methyl-2-pyrrolidone, 60° C., 15 days): 97.3%
Remaining percentage of dithiol compound ([2]; 50% in N-methyl-2-pyrrolidone, 60° C., 30 days): 93.3%
Observation on mixing with N-vinyl-2-pyrrolidone ([2]; N-Vinyl-2-pyrrolidone composition could not be obtained, in a few minutes after mixing): exothermic polymerization reaction occurred intensively
Decomposition of dithiol compound in the composition of the invention ([2]; in N-methyl-2-pyrrolidone, left standing 15 days and 30 days, 60° C.): scarcely decomposed
Solubility ([3]; in 1,2-Bis(bromoacetoxy)ethane): 21.9 weight %
Solubility ([3]; in 2-Pyrrolidone): 51.0 weight %
Amount by weight of dissolved dithiol compound ([3]; in 100 g 1,2-Bis(bromoacetoxy)ethane): 28 g
Amount by weight of dissolved dithiol compound ([3]; in 100 g 2-Pyrrolidone): 104 g
Amount by weight of dissolved dithiol compound ([3]; in 100 g Dimethylformamide containing 5 weight % diethylene glycol monomethyl ether): 206 g
Amount by weight of dissolved dithiol compound ([3]; in 100 g N-Methyl-2-pyrrolidone): 222 g
Amount by weight of dissolved dithiol compound ([3]; in 100 g N-Vinyl-2-pyrrolidone): 117 g
Solubility ([3]; in Dimethylformamide containing 5 weight % diethylene glycol monomethyl ether): 67.3 weight %
Solubility ([3]; in N-Methyl-2-pyrrolidone): 68.9 weight %
Solubility ([3]; in N-Vinyl-2-pyrrolidone): 53.9 weight %
Storage and stability of the effective ingredient [4]: extremely high
Crystallizing temperature [5, 11]: -29.3 °C
Crystals-dissolving temperature [5, 11]: -23.7 °C
Crystallizing temperature [5, 12]: -27.8 °C
Crystals-dissolving temperature [5, 12]: -22.7 °C
Crystallizing temperature [5, 13]: -22.0 °C
Crystals-dissolving temperature [5, 13]: -16.2 °C
Crystallizing temperature [5, 14]: -18.8 °C
Crystals-dissolving temperature [5, 14]: -9.2 °C
Crystallizing temperature [5, 15]: -18.3 °C
Crystals-dissolving temperature [5, 15]: 4.7 °C
Crystallizing temperature [5, 16]: -13.3 °C
Crystals-dissolving temperature [5, 16]: 12.0 °C
Crystallizing temperature [5, 17]: 6.0 °C
Crystals-dissolving temperature [5, 17]: 26.5 °C
Crystallizing temperature [5, 18]: 26.8 °C
Crystals-dissolving temperature [5, 18]: 36.2 °C
Stability in aqueous solution ([6]; aqueous solution): very unstable in the obtained aqueous solution and susceptible to hydrolysis in a short period of time
Solubility in water ([6]; water): below 1%
Storage and stability of the dithiol compound ([7]; diethylene glycol monomethyl ether / dimethylformamide preparations, long period): insufficient to storage and stability of the dithiol compound over a long period
Solubility of the dithiol compound ([7]; in 1,2-bis(bromoacetoxy)ethane, U.S. Pat. No. 4647577): about 22%
Solubility of the dithiol compound ([7]; in mixed solvent of diethylene glycol monomethyl ether and dimethylformamide, 25° C., Kokoku No. 23721/1987): about 67 weight %
Remaining percentage of dithiol compound ([8]; 5% in N-methyl-2-pyrrolidone, 15 days): 70.8%
Remaining percentage of dithiol compound ([8]; 5% in N-methyl-2-pyrrolidone, 30 days): 58.3%
Half life of dithiol compound ([8]; 5% in N-methyl-2-pyrrolidone): 39 days
Remaining percentage of dithiol compound ([8]; 10% in N-methyl-2-pyrrolidone, 11 days): 90.5%
Remaining percentage of dithiol compound ([8]; 10% in N-methyl-2-pyrrolidone, 30 days): 83.2%
Half life of dithiol compound ([8]; 10% in N-methyl-2-pyrrolidone): 103 days
Remaining percentage of dithiol compound ([8]; 15% in N-methyl-2-pyrrolidone, 11 days): 93.7%
Remaining percentage of dithiol compound ([8]; 15% in N-methyl-2-pyrrolidone, 30 days): 87.4%
Half life of dithiol compound ([8]; 15% in N-methyl-2-pyrrolidone): 145 days
Remaining percentage of dithiol compound ([8]; 20% in N-methyl-2-pyrrolidone, 11 days): 93.8%
Remaining percentage of dithiol compound ([8]; 20% in N-methyl-2-pyrrolidone, 30 days): 88.2%
Half life of dithiol compound ([8]; 20% in N-methyl-2-pyrrolidone): 153 days
Remaining percentage of dithiol compound ([8]; 25% in N-methyl-2-pyrrolidone, 11 days): 94.3%
Remaining percentage of dithiol compound ([8]; 25% in N-methyl-2-pyrrolidone, 30 days): 89.0%
Half life of dithiol compound ([8]; 25% in N-methyl-2-pyrrolidone): 165 days
Remaining percentage of dithiol compound ([8]; 30% in N-methyl-2-pyrrolidone, 11 days): 95.6%
Remaining percentage of dithiol compound ([8]; 30% in N-methyl-2-pyrrolidone, 30 days): 88.8%
Half life of dithiol compound ([8]; 30% in N-methyl-2-pyrrolidone): 174 days
Remaining percentage of dithiol compound ([8]; 35% in N-methyl-2-pyrrolidone, 11 days): 95.7%
Remaining percentage of dithiol compound ([8]; 35% in N-methyl-2-pyrrolidone, 30 days): 89.3%
Half life of dithiol compound ([8]; 35% in N-methyl-2-pyrrolidone): 181 days
Remaining percentage of dithiol compound ([8]; 40% in N-methyl-2-pyrrolidone, 11 days): 96.6%
Remaining percentage of dithiol compound ([8]; 40% in N-methyl-2-pyrrolidone, 30 days): 90.4%
Half life of dithiol compound ([8]; 40% in N-methyl-2-pyrrolidone): 209 days
Remaining percentage of dithiol compound ([8]; 50% in N-methyl-2-pyrrolidone, 15 days): 97.3%
Remaining percentage of dithiol compound ([8]; 50% in N-methyl-2-pyrrolidone, 30 days): 93.3%
Half life of dithiol compound ([8]; 50% in N-methyl-2-pyrrolidone): 300 days
Skin irritancy [9]: highly skin-irritant
Slime control [10]: excellent slime control agent
